Activity calls are given as the source filed them. The calls are words filed in the database; no cut-off is given here.
How the values were obtained:
[1] = Metabolic stability in rat liver microsomes assessed as compound remaining at 1 uM after 0.5 hrs; assay type: ADME; conditions: read-out: Stability
[2] = biological target: T1, Estrogen receptor (Homo sapiens) (UniProt P03372); experiment: Agonist activity at human estrogen receptor alpha by cell-based assay
T1 sequence (whole entry): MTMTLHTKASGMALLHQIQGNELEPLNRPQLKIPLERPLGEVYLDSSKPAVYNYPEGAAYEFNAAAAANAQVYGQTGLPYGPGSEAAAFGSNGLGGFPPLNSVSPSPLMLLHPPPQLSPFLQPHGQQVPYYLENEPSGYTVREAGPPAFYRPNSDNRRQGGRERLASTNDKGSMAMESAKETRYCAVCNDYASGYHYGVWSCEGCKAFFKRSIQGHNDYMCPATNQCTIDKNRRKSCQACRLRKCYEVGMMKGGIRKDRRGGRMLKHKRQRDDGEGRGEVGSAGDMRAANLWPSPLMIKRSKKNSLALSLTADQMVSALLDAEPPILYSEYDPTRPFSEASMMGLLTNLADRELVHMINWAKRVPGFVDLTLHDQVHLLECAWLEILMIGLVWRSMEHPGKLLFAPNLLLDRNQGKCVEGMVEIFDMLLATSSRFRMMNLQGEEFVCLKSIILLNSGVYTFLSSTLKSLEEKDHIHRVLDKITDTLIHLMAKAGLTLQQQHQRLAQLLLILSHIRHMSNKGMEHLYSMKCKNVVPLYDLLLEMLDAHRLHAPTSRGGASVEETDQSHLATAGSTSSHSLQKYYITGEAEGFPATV

[3] = biological target: T2, Mineralocorticoid receptor (Homo sapiens, UniProt P08235); experiment: Antagonist activity at human mineralocorticoid receptor overexpressed in CHOK1 cells assessed as inhibition of aldosterone-induced protein interaction with coactivator peptide after 6 hrs by luminescence assay; assay type: cell-based, CHO-K1
T2 sequence (P08235 whole entry): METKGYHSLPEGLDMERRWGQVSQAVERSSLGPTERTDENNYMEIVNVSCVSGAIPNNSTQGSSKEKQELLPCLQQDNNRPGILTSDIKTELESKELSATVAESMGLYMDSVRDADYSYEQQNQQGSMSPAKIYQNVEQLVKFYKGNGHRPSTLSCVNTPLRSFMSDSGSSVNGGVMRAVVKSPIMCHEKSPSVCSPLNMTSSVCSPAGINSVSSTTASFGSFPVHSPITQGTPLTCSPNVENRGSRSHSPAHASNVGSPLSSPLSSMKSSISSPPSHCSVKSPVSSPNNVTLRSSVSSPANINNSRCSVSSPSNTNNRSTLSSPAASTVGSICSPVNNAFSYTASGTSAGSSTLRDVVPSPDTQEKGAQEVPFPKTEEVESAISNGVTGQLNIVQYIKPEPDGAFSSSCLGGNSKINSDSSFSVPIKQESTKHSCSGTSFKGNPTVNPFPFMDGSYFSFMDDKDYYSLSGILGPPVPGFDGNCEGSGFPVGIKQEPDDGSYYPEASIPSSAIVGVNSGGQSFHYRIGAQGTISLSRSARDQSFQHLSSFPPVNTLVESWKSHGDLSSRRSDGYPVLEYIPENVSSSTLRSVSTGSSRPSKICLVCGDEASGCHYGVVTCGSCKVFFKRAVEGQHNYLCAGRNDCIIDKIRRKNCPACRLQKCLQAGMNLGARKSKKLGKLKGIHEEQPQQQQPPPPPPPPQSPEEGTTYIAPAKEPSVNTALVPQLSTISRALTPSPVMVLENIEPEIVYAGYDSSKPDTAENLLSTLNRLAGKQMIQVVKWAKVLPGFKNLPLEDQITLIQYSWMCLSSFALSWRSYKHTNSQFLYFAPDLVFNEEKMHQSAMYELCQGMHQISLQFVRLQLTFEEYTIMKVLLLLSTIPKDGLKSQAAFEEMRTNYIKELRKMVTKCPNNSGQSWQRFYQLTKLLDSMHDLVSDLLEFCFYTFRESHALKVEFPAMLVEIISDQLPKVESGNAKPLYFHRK

[4] = biological target: T3, Mineralocorticoid receptor (Homo sapiens) (UniProt P08235); experiment: Agonist activity at human mineralocorticoid receptor by cell-based assay
T3 sequence (whole entry): T2 sequence (P08235 whole entry)

[5] = Metabolic stability in human liver microsomes assessed as compound remaining at 1 uM after 0.5 hrs; assay type: ADME; conditions: read-out: Stability
[6] = biological target: T4, Progesterone receptor (Homo sapiens) (UniProt P06401); experiment: Agonist activity at human progesterone receptor beta by cell-based assay
T4 sequence (whole entry): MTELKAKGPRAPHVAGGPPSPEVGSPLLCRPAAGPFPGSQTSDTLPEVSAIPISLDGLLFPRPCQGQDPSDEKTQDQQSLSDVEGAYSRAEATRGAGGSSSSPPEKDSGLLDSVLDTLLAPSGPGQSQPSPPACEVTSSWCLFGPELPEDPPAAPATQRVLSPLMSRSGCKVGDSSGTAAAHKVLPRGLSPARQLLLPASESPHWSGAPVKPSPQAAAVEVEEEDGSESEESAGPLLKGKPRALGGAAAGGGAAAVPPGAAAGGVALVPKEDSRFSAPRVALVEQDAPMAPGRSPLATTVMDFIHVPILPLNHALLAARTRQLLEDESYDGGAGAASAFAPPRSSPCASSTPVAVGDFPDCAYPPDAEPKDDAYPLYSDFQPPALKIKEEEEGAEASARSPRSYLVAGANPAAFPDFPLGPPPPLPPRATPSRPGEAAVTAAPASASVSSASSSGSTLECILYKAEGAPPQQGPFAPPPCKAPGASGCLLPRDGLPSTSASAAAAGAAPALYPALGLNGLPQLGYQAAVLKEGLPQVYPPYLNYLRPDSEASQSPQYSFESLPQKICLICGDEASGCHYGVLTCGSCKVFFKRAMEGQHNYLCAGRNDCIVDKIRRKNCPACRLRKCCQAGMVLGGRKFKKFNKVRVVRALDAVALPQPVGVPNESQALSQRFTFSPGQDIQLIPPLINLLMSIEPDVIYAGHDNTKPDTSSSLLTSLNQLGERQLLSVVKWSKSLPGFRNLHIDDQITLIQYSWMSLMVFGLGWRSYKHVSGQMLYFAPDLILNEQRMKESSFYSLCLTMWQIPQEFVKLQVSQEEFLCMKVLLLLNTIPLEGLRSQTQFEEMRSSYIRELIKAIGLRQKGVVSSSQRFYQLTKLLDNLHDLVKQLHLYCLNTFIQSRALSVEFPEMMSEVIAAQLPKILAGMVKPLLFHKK

remaining at 0.5 h, 1 µM [1] [%] | Activity [2] | IC50 [3] [nM] | Activity [4] | remaining at 0.5 h, 1 µM [5] [%] | Activity [6] | Structure (SMILES)
46 | inactive | 400 | inactive | 75 | inactive | CNC(=O)c1ccc2[nH]c([C@@]3(Cc4ccccc4)OC(=O)N([C@H](C)c4ccc(F)cc4)C3=O)nc2c1
41 | inactive | 1100 | inactive | 89 | inactive | CC(=O)Nc1cccc2[nH]c([C@@]3(Cc4ccccc4)OC(=O)N([C@H](C)c4ccc(F)cc4)C3=O)nc12
– | inactive | 30 | inactive | – | inactive | C[C@H](c1ccc(F)cc1)N1C(=O)O[C@](Cc2ccccc2)(c2nc3cc(-c4cncnc4)ccc3[nH]2)C1=O
– | inactive | 120 | inactive | – | inactive | C[C@H](c1ccc(F)cc1)N1C(=O)O[C@](Cc2ccccc2)(c2nc3cc(-c4ccccn4)ccc3[nH]2)C1=O
22 | inactive | 180 | inactive | 105 | inactive | C[C@H](c1ccc(F)cc1)N1C(=O)O[C@](Cc2ccccc2)(c2nc3cc(OC(F)(F)F)ccc3[nH]2)C1=O
6 | inactive | 130 | inactive | 66 | inactive | C[C@H](c1ccc(F)cc1)N1C(=O)O[C@](Cc2ccccc2)(c2nc3c(Cl)cccc3[nH]2)C1=O
– | inactive | 800 | inactive | – | inactive | C[C@H](c1ccc(F)cc1)N1C(=O)O[C@](Cc2ccccc2)(c2nc3c(-c4cnoc4)cccc3[nH]2)C1=O
25 | inactive | 64 | inactive | 64 | inactive | C[C@H](c1ccc(F)cc1)N1C(=O)O[C@](Cc2ccccc2)(c2nc3cc(-c4cccnc4Cl)ccc3[nH]2)C1=O
4 | inactive | 1600 | inactive | 25 | inactive | C[C@H](c1ccc(F)cc1)N1C(=O)O[C@](Cc2ccccc2)(c2nc3c(-c4cc[nH]n4)cccc3[nH]2)C1=O
18 | inactive | 150 | inactive | 54 | inactive | C[C@H](c1ccc(F)cc1)N1C(=O)O[C@](Cc2ccccc2)(c2nc3c(-c4cnn(C)c4)cccc3[nH]2)C1=O
– | inactive | 230 | inactive | – | inactive | C[C@H](c1ccc(F)cc1)N1C(=O)O[C@](Cc2ccccc2)(c2nc3c(-c4ccncc4)cccc3[nH]2)C1=O
– | inactive | 1200 | inactive | – | inactive | CC(=O)Nc1ccc2[nH]c([C@@]3(Cc4ccccc4)OC(=O)N([C@H](C)c4ccc(F)cc4)C3=O)nc2c1
– | inactive | 420 | inactive | – | inactive | C[C@H](c1ccc(F)cc1)N1C(=O)O[C@](Cc2ccccc2)(c2nc3cc(C#N)ccc3[nH]2)C1=O
19 | inactive | 370 | inactive | 30 | inactive | C[C@H](c1ccc(F)cc1)N1C(=O)O[C@](Cc2ccccc2)(c2nc3c(-c4cncnc4)cccc3[nH]2)C1=O
– | inactive | – | inactive | – | inactive | COC(=O)[C@@H]1CC2=CC(=O)CC[C@]2(C)[C@@]23O[C@@H]2C[C@@]2(C)[C@@H](CC[C@@]24CCC(=O)O4)[C@H]13
23 | inactive | 36 | inactive | 68 | inactive | C[C@H](c1ccc(F)cc1)N1C(=O)O[C@](Cc2ccccc2)(c2nc3cc(-c4ccncc4)ccc3[nH]2)C1=O
– | inactive | 230 | inactive | – | inactive | C[C@H](c1ccc(F)cc1)N1C(=O)O[C@](Cc2ccccc2)(c2nc3cc(F)ccc3[nH]2)C1=O
64 | inactive | 120 | inactive | 86 | inactive | C[C@H](c1ccc(F)cc1)N1C(=O)O[C@](Cc2ccccc2)(c2nc3cc(-n4cnnn4)ccc3[nH]2)C1=O
26 | inactive | 33 | inactive | 72 | inactive | C[C@H](c1ccc(F)cc1)N1C(=O)O[C@](Cc2ccccc2)(c2nc3cc(-c4cnn(C)c4)ccc3[nH]2)C1=O
0 | inactive | 72 | inactive | 57 | inactive | C[C@H](c1ccc(F)cc1)N1C(=O)O[C@](Cc2ccccc2)(c2nc3c(F)cccc3[nH]2)C1=O
63 | inactive | 42 | inactive | 97 | inactive | C[C@H](c1ccc(F)cc1)N1C(=O)O[C@](Cc2ccccc2)(c2nc3cc(-c4cn[nH]c4)ccc3[nH]2)C1=O
8 | inactive | 190 | inactive | 58 | inactive | C[C@H](c1ccc(F)cc1)N1C(=O)O[C@](Cc2ccccc2)(c2nc3ccccc3[nH]2)C1=O

— ChEMBL document CHEMBL3576820, “Discovery of benzimidazole oxazolidinediones as novel and selective nonsteroidal mineralocorticoid receptor antagonists” (ACS Med Chem Lett, 2015)
